# Results as given in patent US20130102829A1, “METHOD FOR TREATING OSTEOSARCOMA BY BORON NEUTRON CAPTURE THERAPY USING BORIC ACID AS A BORON DRUG” (National Tsing Hua University, priority 2011, published 2013).
# Like-named read-outs stand apart in the source and are kept apart here.
# What was measured:
# Glioblastoma multiforme = details: in vivo; cited from earlier work
# [1] = rat, in vivo
# Experimental: Before measuring boron concentration of a sample, it needs to undergo microwave digestion first. A sample was initially placed into a Teflon high-pressure digestion vessel, then added with 3 mL of concentrated nitric acid (14N, 65%) and 0.5 mL of hydrogen peroxide (30-35%), and the vessel was sealed before placing the vessel into a microwave digestion system (MLS 1200 Milestone, Italia) for sample decomposition. […] The sample subsequently turned into a clear solution after complete digestion. After diluting the sample with deionized water, an Inductively Coupled Plasma Atomic Emission Spectrometer (ICP-AES, OPTIMA 2000 DV, PerkinElmer Instruments) was used to measure the boron concentration of the sample. For the conditions of the analysis, the temperature of argon plasma was set at 6000-7000 K; the analytical wavelength was set at 249.773 nm, and the liquid uptake rate was set at approximately 2 mL/min; the operating voltage after the formation of plasma was set at 40 V.
# (§1) Male SD rats were the animals used in this osteosarcoma-bearing animal-model. Prior to the experiments, the rats were bred in cage for at least one week at temperature of 22° C. and humidity of 30-70%. An artificial lighting condition (12 h on/12 h off) was maintained in the room. The animal feeds and water were unlimited. The tumor cells used in the experiments were UMR-106 cell strain (Rat osteogenic sarcoma cell line, BCRC No: 60270). Firstly, obtained the UMR-106 tumor cells in exponential growth phase from a culture flask, then centrifuged the UMR-106 cells obtained by subculture method, followed by re-suspending the cells in a media without serum or antibiotics, and dividing the suspension into separate centrifuge microtubes. Placed the Matrigel Matrix (BD Bioscience), a syringe, and the centrifuge microtubes with the cell suspension on ice to be cooled for later use. Before implanting the tumor cells, the UMR-106 cell suspension was mixed with an equal amount of Matrigel first.
# A SD rat was firstly anesthetized by using 2.5% Isoflurane (Halocarbon Laboratories, River Edge, N.J.), followed by shaving and disinfecting a surgical area on the rat for implanting the tumor cells. […] After the implantation, the rats were released back into the cage, and their activities and body conditions were monitored continuously. […]
# Using the boric acid aqueous solution as a boron drug to do the animal experiments, drugs were administered to the osteosarcoma-bearing rats (six-week old, approximately 200-250 g in body weight) via tail vein injection, and the dose of the boric acid drugs was: 25 mg ^10B/kg BW. The rats' body weights needed to be measured and recorded before the experiments for preparing the boric acid aqueous solution. […]
# UMR-106 osteosarcoma = system: UMR-106 osteosarcoma
# Experimental: as §1
# A SD rat was firstly anesthetized by using 2.5% Isoflurane (Halocarbon Laboratories, River Edge, N.J.), followed by shaving and disinfecting a surgical area on the rat for implanting the tumor cells. A 250 μL micro-syringe was fitted with a 25 gauge needle before extracting 200 μL of a mixed solution containing the cells and Matrigel (10×10^6 cells/200 μL). Then the needle was used to penetrate a SD rat's distal femur, which is the femoral condyle; the syringe was rotated in order to penetrate the femur and the spongy bone, and ensured it had protruded out of the femur by touching with a finger. Subsequently, 100 μL of the tumor cell solution was slowly injected into the extra-skeletal muscular tissues, and 100 μL of the solution was injected into the epiphysis and the metaphysis of the femur (at 0.5 cm deep from skin surface) after slowly retracting the needle. After the implantation, the rats were released back into the cage, and their activities and body conditions were monitored continuously. The animals were immunosuppressed by daily administration of cyclosporin A (10 mg/kg, Sandimmun®, Novartis) for total 7 days from the 3rd to the 9th day after UMR-106 cells injection.
# (§2) The experimental animals were divided into three groups; a tumor control group (in which the rats received implantation of tumor cells but not BNCT treatment), a high-dose BNCT group, and a low-dose BNCT group.
# After the SD rats were implanted with tumor cells for 11 days, the BNCT treatment and subsequent evaluation of biological effects were commenced. Considering the pharmacokinetics and the changes in boron concentration distribution in the rats after the drug administration, BNCT irradiation was carried out at adequate times after administering boric acid. The rats were anesthetized by gas, then intravenously injected with a boric acid of 25 mg ^10B/kg BW. Fifteen minutes before the neutron irradiation, the rats were injected with Atropine and Zoletil to allow the rats to be anesthetized longer. Each of the rats was placed on a fixing frame with its tumor-bearing area close to the beam aperture of the Tsing Hua Open-pool Reactor (THOR), and then neutron irradiation was performed at a specific neutron flux and irradiation time to achieve a certain total neutron fluence. For the reactor power at 1.2 MW, the neutron fluxes at the central beam exit were 1.34×10^8, 1.07×10^9, and 7.66×10^7 n/cm^2/sec, respectively for thermal, epithermal, and fast neutrons. [Liu, Y. H., Tsai, P. E., Liu, H. M., Jiang, S. H., “Characterization of a BNCT beam using neutron activation and indirect neutron radiography,” Radiation Measurements, vol. 45, pp. 1167-1170, 2010.] After the irradiation, the actual irradiation time and reactor power were adjusted by using the on-line neutron monitoring system for THOR.
# [2] = rat, in vivo; remark: listed apart in the source
# Description: as §2
# After the SD rats were implanted with tumor cells for 11 days, the BNCT treatment and subsequent evaluation of biological effects were commenced. Considering the pharmacokinetics and the changes in boron concentration distribution in the rats after the drug administration, BNCT irradiation was carried out at adequate times after administering boric acid. The rats were anesthetized by gas, then intravenously injected with a boric acid of 25 mg ^10B/kg BW. Fifteen minutes before the neutron irradiation, the rats were injected with Atropine and Zoletil to allow the rats to be anesthetized longer. […]
# Boric acid (25 mg 10B/kg) were injected into the tumor-bearing rats via the tail vein before the irradiation. […] Consequently, the doses received in each of the organs were calculated according to the actual irradiation times and powers, along with simulations of dose rates in the rats' organs from the MCNP application. […]
# [3] = 60 mg of ^10B stable isotope per kilogram of human body weight; cited from earlier work
# [4] = in vivo; cited from earlier work
# [5] = oral administration of BA to rats or human; cited from earlier work
# [6] = in vivo and in vitro studies; binding to the cis-hydroxy groups; cited from earlier work
# brain tumors = details: 1950s; cited from earlier work
molecule,measurement,setting,value
borocaptate sodium [BSH],ratio of boron concentrations between tumors and normal tissues,Glioblastoma multiforme,does not result in higher ratio
OB(O)O [boric acid],boron concentration of extra-skeletal tumor tissues relative to blood,"[1]; male, Sprague-Dawley, 1 h",approximately 1.2 times
same,boron concentration of tumor-bearing distal femurs relative to blood,"[1]; male, Sprague-Dawley, 1 h",approximately 2.1 times
same,boron concentration of tumor-bearing proximal femurs relative to blood,"[1]; male, Sprague-Dawley, 1 h",approximately 2.6 times
same,boron concentrations in the soft tissues compared with blood,[1],similar
same,histopathological finding of extra-skeletal tumor region,"UMR-106 osteosarcoma; 80th day after BNCT, hematoxylin and eosin stain",no-viable tumor cells were found
same,reduction of the sizes of the tumors,UMR-106 osteosarcoma; 80th day after the irradiation,~90%
same,bone healing on radiographs,"UMR-106 osteosarcoma; high dose day 5 to 16, low dose day 5 to 23 after BNCT",the bone appeared to be healing gradually
same,relative tumor area,"UMR-106 osteosarcoma; high-dose BNCT group (11.0 Gy), 5th day after BNCT, area divided by area on day of BNCT",1.1
same,relative tumor area,"UMR-106 osteosarcoma; high-dose BNCT group, 10th day after BNCT",0.7
same,relative tumor area,"UMR-106 osteosarcoma; high-dose BNCT group, 30th day after BNCT",0.2
same,relative tumor area,"UMR-106 osteosarcoma; high-dose BNCT group, 60th day after BNCT",0.2
same,relative tumor area,"UMR-106 osteosarcoma; high-dose BNCT group, 80th day after BNCT",0.1
same,relative tumor area,"UMR-106 osteosarcoma; low-dose BNCT group (5.8 Gy), 5th day after BNCT",1.3
same,relative tumor area,"UMR-106 osteosarcoma; low-dose BNCT group, 10th day after BNCT",1.1
same,relative tumor area,"UMR-106 osteosarcoma; low-dose BNCT group, 30th day after BNCT",0.3
same,relative tumor area,"UMR-106 osteosarcoma; low-dose BNCT group, 60th day after BNCT",0.2
same,relative tumor area,"UMR-106 osteosarcoma; low-dose BNCT group, 80th day after BNCT",0.2
same,"gastro-intestinal reactions, weight loss and other discomfort after the irradiation",[2],temporary side-effects
same,adverse effect of an injection dose of boric acid,[3],no permanent adverse effect
same,ratio of boron concentrations in blood and soft tissue,[4],one
same,factor by which boron concentrations in bones exceeded those in blood,[5],4
same,affinity with hydroxyapatite of bone,[6],strong affinity
"O=BOB(O)OB(O)OB=O [Borax, sodium borate]",outcome of BNCT clinical trials,brain tumors,unsuccessful
